The values below come from patent publication US20210330616A1, “AMELIORATING AGENT FOR OBESITY-RELATED METABOLIC DISEASE” (METABOLIC AND OBESE RESEARCH SCIENCE CORPORATION, priority 2018, published 2021).

On the set-up of data set [1]: key to Body weight / Insulin resistance / Hyperglycemia / Hypertension / Blood LDLc / Blood HDLc / Fatty liver: ↓: lowering or mitigating action; ↑: increasing action; →: no change. To be noted: cited from earlier work.
Data set [2] deals with T1, Helz2 (Homo sapiens, UniProt Q9BYK8).
T1 construct: 3xFLAG (N); made in house; host or cells: HEK293 cells
Kind of data set: High-throughput screening through surface plasmon resonance for low-molecular-weight compounds that bind to Helz2. The format is binding. The following applies: purified Helz2 protein. An excerpt:
1. High-Throughput Screening for Low-Molecular-Weight Compounds that Bind to Helz2
HEK293 cells were allowed to express Helz2 by using a Helz2 expression vector (p3×FLAG-CMV10-pDIP2), and Helz2 protein was purified.

The test system of data set [3] is obese mice fed high-fat diet. Briefly: Insulin resistance and blood glucose level after oral administration to obese mice. The format is in vivo, mice (C57BL6J). To be noted: obese mice, 14-day oral administration, vs physiological saline. As to the method:
(§1) Six-week-old male mice (C57BL6J) were grown with high-fat diet (fat content: 60 kcal %, Research diets, Inc.) or low-fat diet (fat content: 10.5 kcal %, CLEA Japan, Inc.) for 18 weeks. Thereafter, obese mice fed high-fat diet were separated into two groups, and 0.3 mL of physiological saline was orally administered to one group through a gastric tube for mouse, and 0.3 mL of a solution of a low-molecular-weight compound dissolved in physiological saline was orally administered to the other group through the gastric tube for mouse. Oral administration was performed every day over 14 days during 30 minutes before turning lights off at 18:00 (turning lights on at 6:00, 12-hour light-dark cycle, room temperature: 22° C.). […] Thereafter, the organs were stored at −80° C. Hepatic Leprb expression was measured by means of the qRT-PCR.
6. Change in Insulin Resistance and Blood Glucose Level after Oral Administration of Low-Molecular-Weight Compound
Fasting blood glucose and blood insulin concentration after administration of physiological saline or administration of a low-molecular-weight compound were measured respectively by using an enzyme-electrode method with glucose oxidase and a mouse insulin ELISA kit (Morinaga Institute of Biological Science, Inc.). The insulin resistance of each mouse was represented as Homeostatic model assessment of insulin resistance (HOMA-IR) [insulin (mU/L)×blood glucose (mM)÷22.5] index (×100) (Brit J Nutr 101: 701-708, 2009).

Data set [4] concerns obese mice fed high-fat diet. Briefly: Hepatic lipid content after oral administration to obese mice (LipoSEARCH, BODIPY staining). In kind it is in vivo, mice (C57BL6J). The following applies: obese mice. As to the method:
as §1
8. Change in Hepatic Lipid Content after Oral Administration of Low-Molecular-Weight Compound
Hepatic Tg and Chol contents after administration of physiological saline or administration of a low-molecular-weight compound were measured by using a LipoSEARCH method (Skylight Biotech, Inc.).
To visualize and quantify the amount of fat accumulated in hepatocyte per cell and change in shape of fat, fat globule fluorescent staining with BODIPY (excitation light: 493 nm; fluorescence: 503 nm) was performed. Staining-positive area and size of staining-positive cell were measured in 10 views per mouse hepatocyte in each group. ANOVA was used for intergroup significance test in FIGS. 8-D and 8-E (****. P<0.001).

Data set [5] deals with obese mice fed high-fat diet. Kind of data set: Daily variation of body weight with oral administration to obese mice. In kind it is in vivo, mice (C57BL6J). To be noted: obese mice, 0.32 mg/kg/day oral. As to the method: as §1
4. Daily Variation of Body Weight with Oral Administration of Low-Molecular-Weight Compound
The body weight of each mouse with administration of physiological saline or administration of a low-molecular-weight compound was measured every day before each administration at 18:00.

Data set [6] has as its system obese mice fed high-fat diet. Briefly: Weights of spleen and kidney after oral administration to obese mice. In kind it is in vivo, mice (C57BL6J). The following applies: 14-day oral administration, vs physiological saline. As to the method:
as §1
11. Change in Weights of Spleen and Kidney after Oral Administration of Low-Molecular-Weight Compound
The weights of the spleen and kidney after administration of physiological saline or administration of a low-molecular-weight compound were measured.

Data set [7] concerns obese mice fed high-fat diet. Briefly: Pancreatic weight and pancreatic β-cell function after oral administration to obese mice. The format is in vivo, mice (C57BL6J). The following applies: 14-day oral administration, vs physiological saline. As to the method:
as §1
7. Change in Pancreatic Weight and Pancreatic β-Cell Function after Oral Administration of Low-Molecular-Weight Compound
Pancreatic weight after administration of physiological saline or administration of a low-molecular-weight compound was measured. The pancreatic β-cell function of each mouse was represented by Homeostatic model assessment-β cell function (HOMA-β) {[insulin (mU/L)×20]÷[blood glucose (mM)−3.5]} index (×100) (Brit J Nutr 101:701-708, 2009).

The test system of data set [8] is obese mice fed high-fat diet. Kind of data set: Weights of liver and heart after oral administration to obese mice. The following applies: 14-day oral administration, vs physiological saline. In kind it is in vivo, mice (C57BL6J). As to the method:
as §1
9. Change in Weights of Liver and Heart after Oral Administration of Low-Molecular-Weight Compound
The weights of the liver and heart after administration of physiological saline or administration of a low-molecular-weight compound were measured.

Data set [9] relates to Hepatic Leprb expression. Briefly: Hepatic Leprb expression with oral administration to obese mice. In kind it is in vivo, mice (C57BL6J). To be noted: 0.32 mg/kg/day oral, 14 days, vs physiological saline. As to the method:
3. Hepatic Leprb Expression with Oral Administration of Low-Molecular-Weight Compound
as §1

The subject of data set [10] is Leprb gene expression in HepG2 cells. Kind of data set: Leprb gene expression in cultured hepatocyte HepG2 (qRT-PCR). The format is cell-based. To be noted: HepG2, 10^−9 to 10^−7M, 24 to 48 hours. (Quantitative PCR measures a nucleic acid by following its amplification.)
Description: Identification of Low-Molecular-Weight Compound that Promotes Leprb Expression in Cultured Hepatocytes
Because Leprb gene expression is promoted on lowering of the action of Helz2 through binding of a low-molecular-weight compound, the low-molecular-weight compounds that bound to Helz2 were screened with use of increase of Leprb gene expression in cultured hepatocyte as an index. […] The hepatocytes were cultured at 37° C. for 24 to 48 hours, and Leprb gene expression therein was measured through a quantitative real time polymerase chain reaction (qRT-PCR, TaqMan Gene expression assays using LEPRB probes) method.
Data set [11] relates to obese mice fed high-fat diet. Briefly: Blood lipid concentration after oral administration to obese mice. In kind it is in vivo, mice (C57BL6J). To be noted: obese mice, 14-day oral administration, fasting, vs physiological saline. As to the method: as §1
10. Change in Blood Lipid Concentration after Oral Administration of Low-Molecular-Weight Compound
Fasting blood CM-Tg, VLDL-Tg, LDLc, and HDLc concentrations after administration of physiological saline or administration of a low-molecular-weight compound were measured by using the LipoSEARCH method.

For data set [12], the system named is obese mice fed high-fat diet. Briefly: Blood leptin concentration and food intake after oral administration to obese mice. In kind it is in vivo, mice (C57BL6J). As to the method:
as §1
5. Change in Blood Leptin Concentration and Food Intake after Oral Administration of Low-Molecular-Weight Compound
Blood leptin concentration after administration of physiological saline or administration of a low-molecular-weight compound were measured by using a mouse leptin ELISA kit (Morinaga Institute of Biological Science, Inc.). The daily food intake of each mouse was measured every day before each administration at 18:00.

Data set [13] concerns obese mice fed high-fat diet. Kind of data set: Weights of fat and muscle after oral administration to obese mice. In kind it is in vivo, mice (C57BL6J). To be noted: 14-day oral administration. As to the method: as §1
12. Change in Weights of Fat and Muscle after Oral Administration of Low-Molecular-Weight Compound
The amounts of visceral fat, which evokes metabolic disorder, and muscle (right side) after administration of physiological saline or administration of a low-molecular-weight compound were measured.

Where [14] appears, read: surface plasmon resonance, read-out: KD value for binding to and dissociating from Helz2.
Setting [15] is: 14-day oral administration, vs physiological saline.
The mark [16] stands for this setting: fatty liver caused by high-fat diet.
Setting [17] is: obese mice, 14-day oral administration, vs physiological saline.
Where [18] appears, read: KD value for binding to and dissociating from Helz2, surface plasmon resonance.

In general, Kd refers to the constant that tells how readily two partners part at equilibrium.

Values joined by “and” are separate entries in the source; they are usually repeats but may differ in a detail not shown here. Equal values may be shown once. Where a name gives a salt, the structure may show the parent alone. Read-outs that look alike come from different tables or passages of the source. Where only a bound is given, the exact number is not on record here.

T1 sequence (Q9BYK8 whole entry): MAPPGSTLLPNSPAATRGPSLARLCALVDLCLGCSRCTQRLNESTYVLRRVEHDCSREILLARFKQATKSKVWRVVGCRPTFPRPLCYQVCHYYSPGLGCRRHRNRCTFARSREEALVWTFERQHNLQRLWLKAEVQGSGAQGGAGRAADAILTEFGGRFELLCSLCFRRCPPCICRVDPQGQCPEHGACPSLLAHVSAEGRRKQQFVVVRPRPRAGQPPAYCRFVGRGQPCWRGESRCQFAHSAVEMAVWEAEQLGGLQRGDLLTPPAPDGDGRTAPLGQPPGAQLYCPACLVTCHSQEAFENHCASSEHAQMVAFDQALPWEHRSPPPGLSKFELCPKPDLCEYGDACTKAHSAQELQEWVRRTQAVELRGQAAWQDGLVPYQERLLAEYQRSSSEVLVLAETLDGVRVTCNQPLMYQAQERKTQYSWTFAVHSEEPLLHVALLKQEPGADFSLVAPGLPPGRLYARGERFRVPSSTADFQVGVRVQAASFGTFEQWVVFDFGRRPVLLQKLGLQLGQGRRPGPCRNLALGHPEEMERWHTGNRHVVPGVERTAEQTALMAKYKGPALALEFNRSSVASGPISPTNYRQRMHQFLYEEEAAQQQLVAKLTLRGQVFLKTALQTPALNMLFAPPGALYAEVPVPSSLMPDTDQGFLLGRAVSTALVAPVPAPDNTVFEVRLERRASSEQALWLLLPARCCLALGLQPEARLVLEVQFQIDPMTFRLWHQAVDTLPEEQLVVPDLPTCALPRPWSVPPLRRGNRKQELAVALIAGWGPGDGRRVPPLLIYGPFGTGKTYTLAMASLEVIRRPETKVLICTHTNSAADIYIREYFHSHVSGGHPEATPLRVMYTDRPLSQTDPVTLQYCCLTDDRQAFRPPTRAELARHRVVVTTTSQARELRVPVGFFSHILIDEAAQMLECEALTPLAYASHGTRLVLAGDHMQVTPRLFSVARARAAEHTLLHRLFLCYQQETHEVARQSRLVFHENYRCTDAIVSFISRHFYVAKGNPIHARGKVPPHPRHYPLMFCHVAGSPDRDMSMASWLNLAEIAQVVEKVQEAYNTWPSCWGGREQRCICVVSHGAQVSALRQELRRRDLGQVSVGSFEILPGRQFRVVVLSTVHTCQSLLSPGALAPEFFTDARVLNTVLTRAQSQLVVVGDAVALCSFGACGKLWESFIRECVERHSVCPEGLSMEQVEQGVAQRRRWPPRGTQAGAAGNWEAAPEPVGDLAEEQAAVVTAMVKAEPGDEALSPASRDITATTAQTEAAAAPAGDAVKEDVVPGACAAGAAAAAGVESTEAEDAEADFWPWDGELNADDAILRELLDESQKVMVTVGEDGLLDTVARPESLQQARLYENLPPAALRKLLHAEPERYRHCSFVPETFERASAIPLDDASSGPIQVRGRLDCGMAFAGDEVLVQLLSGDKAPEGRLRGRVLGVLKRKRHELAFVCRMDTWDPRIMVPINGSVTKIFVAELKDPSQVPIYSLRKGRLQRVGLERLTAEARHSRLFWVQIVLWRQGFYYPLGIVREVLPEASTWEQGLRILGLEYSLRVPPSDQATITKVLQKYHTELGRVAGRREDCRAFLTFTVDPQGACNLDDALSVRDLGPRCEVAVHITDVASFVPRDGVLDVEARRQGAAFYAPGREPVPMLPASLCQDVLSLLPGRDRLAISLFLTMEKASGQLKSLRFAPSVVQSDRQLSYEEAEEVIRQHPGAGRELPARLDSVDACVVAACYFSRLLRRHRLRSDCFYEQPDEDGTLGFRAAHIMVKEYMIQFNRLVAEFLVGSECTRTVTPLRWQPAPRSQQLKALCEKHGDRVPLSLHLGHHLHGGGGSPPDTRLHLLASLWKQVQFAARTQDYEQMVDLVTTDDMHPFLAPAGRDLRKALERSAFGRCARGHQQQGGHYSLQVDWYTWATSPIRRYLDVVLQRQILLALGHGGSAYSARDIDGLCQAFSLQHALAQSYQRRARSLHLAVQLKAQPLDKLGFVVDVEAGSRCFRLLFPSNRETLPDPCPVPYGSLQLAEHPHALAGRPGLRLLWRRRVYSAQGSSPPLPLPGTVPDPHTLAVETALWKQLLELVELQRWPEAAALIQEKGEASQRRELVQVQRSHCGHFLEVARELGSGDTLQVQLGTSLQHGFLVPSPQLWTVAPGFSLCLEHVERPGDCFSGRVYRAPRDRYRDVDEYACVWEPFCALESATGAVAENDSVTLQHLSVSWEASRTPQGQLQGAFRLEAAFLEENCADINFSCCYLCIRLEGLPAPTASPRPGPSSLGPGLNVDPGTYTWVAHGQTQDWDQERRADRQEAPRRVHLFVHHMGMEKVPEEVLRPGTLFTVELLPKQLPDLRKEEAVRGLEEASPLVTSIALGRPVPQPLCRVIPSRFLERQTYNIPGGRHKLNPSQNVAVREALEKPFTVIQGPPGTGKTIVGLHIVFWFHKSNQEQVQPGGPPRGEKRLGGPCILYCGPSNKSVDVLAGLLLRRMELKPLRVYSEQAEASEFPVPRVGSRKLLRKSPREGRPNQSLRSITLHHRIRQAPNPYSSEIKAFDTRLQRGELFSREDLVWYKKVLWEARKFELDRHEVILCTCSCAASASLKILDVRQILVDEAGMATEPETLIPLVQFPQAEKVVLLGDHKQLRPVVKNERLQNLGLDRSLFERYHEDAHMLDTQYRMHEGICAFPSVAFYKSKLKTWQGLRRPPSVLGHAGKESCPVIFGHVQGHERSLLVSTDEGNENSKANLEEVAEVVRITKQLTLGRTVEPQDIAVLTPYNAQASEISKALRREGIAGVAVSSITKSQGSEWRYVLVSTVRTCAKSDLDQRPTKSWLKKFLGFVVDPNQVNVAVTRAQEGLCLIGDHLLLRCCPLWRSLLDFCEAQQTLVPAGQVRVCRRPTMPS

As to `CN(C)C(=N)N=C(N)N` [Metformin], in [1] (Table 1, comparator drugs), the “Blood HDLc” value was “→”, the “Blood LDLc” value is “→”, the Body weight result is reported as “→” and the Fatty liver entry is given as “→”. Moreover, in data set [1] (Table 1, comparator drugs), the Hyperglycemia entry is recorded as “↓”, the Hypertension result was “→” and the Insulin resistance result was “↓”. Also, in data set [1] (comparison, comparator drugs), the “action on insulin resistance” value was “ameliorate insulin resistance”, the anti-fatty liver action result is reported as “does not exhibit anti-fatty liver action”, the anti-obesity action result is given as “does not exhibit anti-obesity action” and the hyperglycemia-mitigating action entry is “exhibits hyperglycemia-mitigating action”.

As for `NCCCNCCSP(=O)(O)O` [amifostine trihydrate], the Kd in [2] (setting [14]) is 1 to 490 nM.

Take `CN(C)CCC(c1ccc(Br)cc1)c1ccccn1` (stereo not shown) [brompheniramine maleate]: the Kd in data set [2] (setting [14]) was in the range of 1 to 490 nM.

Regarding `Clc1cccc(Cl)c1N=C1NCCN1` [clonidine hydrochloride], the equilibrium dissociation constant (Kd) in [2] (setting [14]) is at least 1000 nM.

Take `COC(=O)Nc1nc2ccc(Sc3ccccc3)cc2[nH]1` [fenbendazole]: the Kd in [2] (setting [14]) lay in the range of 1 to 490 nM.

In the case of `N=C(N)N/N=C/c1c(Cl)cccc1Cl` [guanabenz acetate], in data set [3] (fasting), the blood glucose levels result is given as “lowered the level of hyperglycemia to that in non-obese mice” and the blood insulin levels result is given as “mitigated hyperinsulinemia”. Also, the “HOMA-IR index (insulin resistance index)” value in data set [3] was “suppressed the HOMA-IR index”. Moreover, in data set [4] (setting [15]), the “hepatic Chol content” value is given as “significantly reduced” and the “hepatic Tg content” value is given as “significantly reduced”. In [4] (setting [16]), the “fat globule area (BODIPY staining-positive area in hepatocyte)” value is reported as “significantly decreased” and the “fat globule cell size (size of BODIPY staining-positive cell)” value is “significantly decreased”. Further, in data set [5] (after day 4 from the beginning of administration, vs physiological saline), the body weight gain result was “significantly reduced”. For the same compound, in data set [5] (on day 8 from the beginning of administration, maintained during administration), the Body weight entry is on record as “significant body weight reduction”. In addition, in data set [6], the weight of kidney result was “No change” and the weight of spleen result was “No change”. Moreover, in data set [2] (setting [14]), the Kd is 1 to 490 nM and 2.3 nM. In addition, in data set [7], the “HOMA-β index (pancreatic β-cell function)” value is listed as “not changed” and the pancreatic weight entry is “not changed”. In data set [8], the weight of heart result is listed as “significantly decreased” and the weight of liver entry is reported as “significantly decreased”. Also, the “Hepatic Leprb gene expression” value in [9] is reported as “significantly increased”. The “Leprb expression in cultured hepatocyte (index of lowering of Helz2 action)” value in data set [10] was “Concentration-dependent increase in Leprb expression”. For the same compound, in [11], the “blood CM-Tg concentration” value is given as “not changed”, the “blood HDLc concentration” value was “not changed”, the “blood LDLc concentration” value is “significantly decreased” and the “blood VLDL-Tg concentration” value is listed as “not changed”. Further, in data set [12] (obese mice after administration, vs non-obese mice (2.3±0.5 ng/mL)), the “blood leptin concentration relative to non-obese mice” value is recorded as at least 10 fold. Moreover, in data set [12] (setting [17]), the blood leptin concentration result was “rather slightly decreased” and the “total food intake accumulation” value is on record as “no significant change”. Also, in [12] (obese mice, except on day 3 from the beginning of administration, vs physiological saline), the daily food intake entry is listed as “no change in daily food intake”. Further, in data set [13], the “muscle weight of gastrocnemius muscle” value is recorded as “not affected”, the “muscle weight of plantaris muscle” value was “not affected” and the “muscle weight of soleus muscle” value is given as “not affected”. Further, in data set [13] (vs physiological saline), the “amount of intestinal membrane fat” value was “not changed”, the “amount of peritesticular fat” value is given as “not changed” and the “amount of total visceral fat” value was “not changed”.

On to `CN(C)C(=O)C(CCN1CCC(O)(c2ccc(Cl)cc2)CC1)(c1ccccc1)c1ccccc1` [loperamide hydrochloride], for which the dissociation constant (Kd) in [2] (setting [18]) lay in the range of 1 to 490 nM.

In the case of `Cc1nc2ccccn2c(=O)c1CCN1CCC(C(=O)c2ccc(F)cc2)CC1` [pirenperone], the Kd in data set [2] (setting [14]) lay in the range of 1 to 490 nM.

In the case of `CC(NCCc1ccc(O)cc1)C(O)c1ccc(O)cc1` (stereo not shown) [ritodrine hydrochloride], the equilibrium dissociation constant (Kd) in data set [2] (setting [14]) fell in the range of 1 to 490 nM.

Compound `CCN(C)C(=O)Oc1cccc([C@H](C)N(C)C)c1` [rivastigmine tartrate] yielded a Kd in [2] (setting [18]) of 1 to 490 nM.

`CC(C)(C)NCC(O)c1ccc(O)c(CO)c1` (stereo not shown) [salbutamol]: the dissociation constant Kd in data set [2] (setting [14]) is 1 to 490 nM and 220 nM.

In turn, `CC(C)CC(N(C)C)C1(c2ccc(Cl)cc2)CCC1` (stereo not shown) [sibutramine hydrochloride] gave a dissociation constant (Kd) in data set [2] (setting [18]) of 1 to 490 nM.

For `CC1(C)[C@H](C(=O)O)N2C(=O)C[C@H]2S1(=O)=O` [sulbactam], the dissociation constant (Kd) in data set [2] (setting [14]) is 1 to 490 nM.

`C[C@@H](c1ncncc1F)[C@](O)(Cn1cncn1)c1ccc(F)cc1F` [voriconazole]: the Kd in data set [2] (setting [14]) fell in the range of 1 to 490 nM.
